Assay results taken from patent publication US20040266794A1, “Pramipexole for the reduction of excessive food intake for children” (Boehringer Ingelheim International GmbH, priority 2003, published 2004).
Where two headings read alike, the source gives them in different places.

Assays:
[1] = tested on: mice (Strain: C57BL/6); settings: C57BL/6 mice fasted 24 hours; single application given on successive days, 2.5 mg/kg of body weight s.c.; food consumption over 4 days; vs physiological saline; FIG. 1
Procedure: Test method by single administration:
(§1) 10 mice (Strain: C57BL/6) were deprived of food for 24 hours while being given free access to drinking water.
20 minutes before the end of the fasting period pramipexol was administered (2.5 mg/kg of body weight s.c.). The control group, also 10 mice, were given physiological saline solution, the solvent used for pramipexol. Then the animals were offered food and the food consumption over 4 days in 30 minute cycles was measured.

[2] = tested on: mice (Strain: C57BL/6)
Procedure: as §1

## CCCN[C@H]1CCc2nc(N)sc2C1 [Pramipexol]
[1]
  food intake: did not significantly reduce food intake
[2]; C57BL/6 mice fasted 24 hours, continuous administration by alzet Mini-osmotic pump s.c., 2.5 mg of pramipexol/24 hours, measured for 4 days, vs physiological saline, FIG. 1
  food intake: permanent, statistically highly significant inhibition in food intake
[2]; C57BL/6 mice, continuous (long term) administration by osmotic pump s.c., measured daily over 22 days, administration ending after 14 days, FIG. 2
  change in weight: permanent weight reduction was observed which was statistically highly significant even after the pramipexol treatment had ended
